The NIST ThermoML archive (doi:10.1021/je800747v)

Assay: xn = mol fraction of the nth substance listed
Conditions: 101 kPa, Liquid, Optical method

CCCCCCC [heptane] + CCO
x2 = 0
Conditions | binary diffusion coefficient [m2/s]
276.64 K | 7.57e-09
277.73 K | 7.61e-09
281.59 K | 7.64e-09
284.32 K | 7.7e-09
287.28 K | 7.75e-09
289.59 K | 7.79e-09
292.83 K | 7.84e-09
294.95 K | 7.9e-09
296.37 K | 7.94e-09
298.46 K | 8.07e-09
301.29 K | 8.19e-09
304.98 K | 8.22e-09
306.86 K | 8.37e-09
310.67 K | 8.47e-09
312.41 K | 8.58e-09
316.09 K | 8.71e-09
319.27 K | 8.91e-09
322.81 K | 9.17e-09
325.36 K | 9.22e-09
328.78 K | 9.36e-09
332.63 K | 9.5e-09

[Cl-].[K+] [potassium chloride] + O
Conditions | binary diffusion coefficient [m2/s]
298.15 K, x1 = 0 | 1.86e-09

COCCOC [1,2-dimethoxyethane] + CCCCCCC
x1 = 0
Conditions | binary diffusion coefficient [m2/s]
276.64 K | 5.24e-09
277.73 K | 5.28e-09
281.59 K | 5.31e-09
284.32 K | 5.35e-09
287.28 K | 5.4e-09
289.59 K | 5.44e-09
292.83 K | 5.51e-09
294.95 K | 5.57e-09
296.37 K | 5.63e-09
298.46 K | 5.69e-09
301.29 K | 5.79e-09
304.98 K | 5.89e-09
306.86 K | 5.98e-09
310.67 K | 6.13e-09
312.41 K | 6.3e-09
316.09 K | 6.48e-09
319.27 K | 6.62e-09
322.81 K | 6.79e-09
325.36 K | 6.94e-09
328.78 K | 7.3e-09
332.63 K | 7.59e-09

COCCOCCOC [2,5,8-trioxanonane] + CCCCCCC
x1 = 0
Conditions | binary diffusion coefficient [m2/s]
276.64 K | 9.42e-10
277.73 K | 9.48e-10
281.59 K | 9.51e-10
284.32 K | 9.58e-10
287.28 K | 9.76e-10
289.59 K | 9.87e-10
292.83 K | 1e-09
294.95 K | 1.02e-09
296.37 K | 1.05e-09
298.46 K | 1.07e-09
301.29 K | 1.08e-09
304.98 K | 1.12e-09
306.86 K | 1.14e-09
310.67 K | 1.18e-09
312.41 K | 1.23e-09
316.09 K | 1.26e-09
319.27 K | 1.31e-09
322.81 K | 1.37e-09
325.36 K | 1.43e-09
328.78 K | 1.48e-09
332.63 K | 1.53e-09
